Molecular target: DDAH (Rattus norvegicus, UniProt O08557)
Experiment: DDAH activity toward ADMA versus SDMA
Type: biochemical
Conditions: ADMA versus SDMA as substrate
From the text: DDAH, however, has at least 1000-fold higher activity toward ADMA than SDMA, and is therefore uniquely suited for use in an enzymatic assay for unequivocal measurement of ADMA in complex mixtures. Nevertheless an enzymatic ADMA assay using DDAH is problematical because of a number of interfering components in blood. Importantly, citrulline is present in blood, so that it would provide a large background which would substantially diminish the accuracy of an assay where citrulline is the final product which is determined as a measure of the amount of ADMA in the sample. In addition, urea which is also present in blood cross-reacts in the citrulline assay. Finally, porphyrins in blood interfere with the spectrophotometric determination of citrulline. In order to have an enzymatic assay using DDAH, it is essential to prevent these various blood components from interfering with the assay.

DDAH, sequence (O08557 whole entry): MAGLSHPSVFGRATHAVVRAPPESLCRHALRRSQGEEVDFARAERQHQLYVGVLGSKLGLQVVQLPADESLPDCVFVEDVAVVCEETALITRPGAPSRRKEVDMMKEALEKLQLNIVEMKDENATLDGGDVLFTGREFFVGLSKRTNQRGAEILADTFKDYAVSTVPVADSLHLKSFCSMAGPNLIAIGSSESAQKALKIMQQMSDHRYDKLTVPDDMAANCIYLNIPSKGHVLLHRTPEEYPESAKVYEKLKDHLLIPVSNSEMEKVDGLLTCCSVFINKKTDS

CN(C)C(N)=NCCC[C@H](N)C(=O)O [ADMA, asymmetric dimethylarginine]
DDAH activity toward ADMA relative to SDMA: at least 1000 fold
